Source: ChEMBL document CHEMBL1151407, “Bisbenzylisoquinoline Alkaloids” (1983)

Legend:
Format in all cases: functional
[1] = In vivo antitumor activity against ascites carcinoma in mouse
[2] = test system: Ehrlich; assay: In vivo antitumor activity against Ehrlich ascite carcinoma in mouse
[3] = test system: Ehrlich; assay: In vivo antitumor activity against mouse Ehrlich ascite carcinoma cells xenografted in mouse assessed as suppression of tumor growth at 70 mg/kg
[4] = test system: CCRF S-180; assay: In vivo antitumor activity against mouse S180 cells xenografted in mouse assessed as suppression of tumor growth at 70 mg/kg
[5] = test system: Lewis lung carcinoma cell line; assay: In vivo antitumor activity against mouse Lewis lung carcinoma cells xenografted in mouse assessed as suppression of tumor growth at 100 mg/kg

COc1ccc2cc1Oc1ccc(cc1)C[C@H]1c3cc(OC)c(OC)c(c3CCN1C)Oc1c(OC)c(OC)cc3c1[C@H](C2)N(C)CC3 [THALIDASINE] gave an LD50 [1] of 300 mg/kg, an LD50 [2] of 520 mg/kg and an Activity [3] of 50%. For the same compound, the Activity [4] was 20% and the Activity [5] was 58%.
